Test [1] deals with Hedgehog pathway activation on 10T1/2/Smo#3 cells (C3H10T1/2 cells transfected with human Smoothened receptor). Put plainly: Hedgehog pathway activation on 10T1/2/Smo#3 cells measured by ALP activity. Format: cell-based. Particulars: Mus musculus, C3H 10T1/2, 10T1/2/Smo#3 cells. Summed up: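 Inhibition of alkaline phosphatase induction, read fluorometrically from 4-methylumbelliferyl phosphate conversion, gave IC50 values; CellTiter-Blue tracked viability in parallel. Cells were the human Smo-transfected 10T1/2/Smo#3 pool, stimulated by 10-20% hShh conditioned medium or the Smo agonist SAG (500 nM).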

In test [2] the test system is Hedgehog pathway activation (GLi-luciferase reporter) in Shh Light II reporter cells. The test is described as follows: Hedgehog pathway activation on Shh Light II reporter cells measured by luciferase activity. Format: cell-based. Particulars: Mus musculus, Shh Light II. In short, it runs like this:
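Shh Light II reporter cells carrying a hedgehog-responsive GLi-luciferase reporter were stimulated either with 500 nM SAG, a direct Smoothened agonist, or with conditioned media containing human Sonic Hedgehog (hShh). Test compounds were evaluated for blocking this pathway activation, quantified by luciferase activity. Cell viability was monitored in parallel with the Celltiter-Blue® assay.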

Where [3] appears, read: measured by ALP activity, read-out: ALP (IC50, inhibition of Hedgehog pathway activation).
The mark [4] stands for this setting: hShh activation, read-out: Shh (IC50, inhibition of Hedgehog pathway activation).
The mark [5] stands for this setting: hShh activation, ALP activity, read-out: 10T1/2/Smo#3 ALP activity (hShh Activation).
The mark [6] stands for this setting: SAG activation (500 nM SAG), read-out: Shh Light II luciferase activity (SAG activation).
Setting [7] is: hShh activation, read-out: Shh Light II luciferase activity (hShh activation).

SMILES strings stand for the structures. Where two headings read alike, the source gives them in different places.

For the compound `CCOC(=O)Nc1cc(-c2cn3nc(-c4cccnc4C(F)(F)F)ccc3n2)c(F)cc1Cl` [Example 657, ethyl 2-chloro-4-fluoro-5-(6-(2-(trifluoromethyl)pyridin-3-yl)imidazo[1,2-b]pyridazin-2-yl)phenylcarbamate], the IC50 worked out at 251 nM in test [1] (setting [3]) and 96 nM in test [2] (setting [4]).
The corresponding values for `CC(C)(C)C(=O)Nc1cc(-c2cn3nc(-c4cccnc4C(F)(F)F)ccc3n2)ccc1F` [Example 658, N-(2-fluoro-5-(6-(2-(trifluoromethyl)pyridin-3-yl)imidazo[1,2-b]pyridazin-2-yl)phenyl)pivalamide] are 85 nM and 27 nM.
The corresponding values for `CCC(C)(C)C(=O)Nc1cc(-c2cn3nc(-c4cccnc4C(F)(F)F)ccc3n2)c(F)cc1Cl` [Example 659, N-(2-chloro-4-fluoro-5-(6-(2-(trifluoromethyl)pyridin-3-yl)imidazo[1,2-b]pyridazin-2-yl)phenyl)-2,2-dimethylbutanamide] are 75 nM and 22 nM.
Turning to `CC(C)(C(=O)Nc1cc(-c2cn3nc(-c4cccnc4C(F)(F)F)ccc3n2)c(F)cc1Cl)C(F)(F)F` [Example 660, N-(2-chloro-4-fluoro-5-(6-(2-(trifluoromethyl)pyridin-3-yl)imidazo[1,2-b]pyridazin-2-yl)phenyl)-3,3,3-trifluoro-2,2-dimethylpropanamide], the IC50 in test [1] (setting [3]) turned out to be 17 nM; in test [2] (setting [4]) it was 32 nM.
The corresponding values for `CC(CC(=O)Nc1cc(-c2cn3nc(-c4cccnc4C(F)(F)F)ccc3n2)c(F)cc1Cl)C(F)(F)F` (centres unmarked) [Example 661, N-(2-chloro-4-fluoro-5-(6-(2-(trifluoromethyl)pyridin-3-yl)imidazo[1,2-b]pyridazin-2-yl)phenyl)-4,4,4-trifluoro-3-methylbutanamide] are 15 nM and 31 nM.
On to `CCCC(C)(C)C(=O)Nc1cc(-c2cn3nc(-c4cccnc4C(F)(F)F)ccc3n2)c(F)cc1Cl` [Example 662, N-(2-chloro-4-fluoro-5-(6-(2-(trifluoromethyl)pyridin-3-yl)imidazo[1,2-b]pyridazin-2-yl)phenyl)-2,2-dimethylpentanamide], for which the IC50 in test [1] (setting [5]) is below 300 nM; in test [1] (setting [3]) it was 161 nM; in test [2] (setting [6]) it was below 300 nM; in test [2] (setting [4]), 39 nM; in test [2] (setting [7]) it was below 300 nM.
Consider `CCC(C)(C)C(=O)Nc1cc(-c2cn3nc(-c4cccnc4C(F)(F)F)ccc3n2)ccc1Cl` [Example 664, N-(2-chloro-5-(6-(2-(trifluoromethyl)pyridin-3-yl)imidazo[1,2-b]pyridazin-2-yl)phenyl)-2,2-dimethylbutanamide], for which the IC50 in test [1] (setting [3]) was determined as 105 nM; in test [2] (setting [4]) it was 24 nM.
Turning to `CC(C)(C(=O)Nc1cc(-c2cn3nc(-c4cccnc4C(F)(F)F)ccc3n2)ccc1Cl)C(F)(F)F` [Example 665, N-(2-chloro-5-(6-(2-(trifluoromethyl)pyridin-3-yl)imidazo[1,2-b]pyridazin-2-yl)phenyl)-3,3,3-trifluoro-2,2-dimethylpropanamide], the IC50 in test [1] (setting [3]) was determined as 120 nM; in test [2] (setting [4]), 19 nM.
In the same order, the values of `CC(CC(=O)Nc1cc(-c2cn3nc(-c4cccnc4C(F)(F)F)ccc3n2)ccc1Cl)C(F)(F)F` (centres unmarked) [Example 666, N-(2-chloro-5-(6-(2-(trifluoromethyl)pyridin-3-yl)imidazo[1,2-b]pyridazin-2-yl)phenyl)-4,4,4-trifluoro-3-methylbutanamide] are 527 nM and 64 nM.
For the compound `CCCC(C)(C)C(=O)Nc1cc(-c2cn3nc(-c4cccnc4C(F)(F)F)ccc3n2)ccc1Cl` [Example 667, N-(2-chloro-5-(6-(2-(trifluoromethyl)pyridin-3-yl)imidazo[1,2-b]pyridazin-2-yl)phenyl)-2,2-dimethylpentanamide], the IC50 was found to be 203 nM in test [1] (setting [3]) and 64 nM in test [2] (setting [4]).
The corresponding values for `CC(C)OC(=O)Nc1cc(-c2cn3nc(-c4cccnc4C(F)(F)F)ccc3n2)ccc1Cl` [Example 668, isopropyl 2-chloro-5-(6-(2-(trifluoromethyl)pyridin-3-yl)imidazo[1,2-b]pyridazin-2-yl)phenylcarbamate] are 631 nM and 283 nM.
Regarding `O=C(Nc1cc(-c2cn3nc(-c4cccnc4C(F)(F)F)ccc3n2)ccc1Cl)N1CC(F)(F)C1` [Example 669, N-(2-chloro-5-(6-(2-(trifluoromethyl)pyridin-3-yl)imidazo[1,2-b]pyridazin-2-yl)phenyl)-3,3-difluoroazetidine-1-carboxamide], the IC50 is below 300 nM in test [1] (setting [5]); 125 nM in test [1] (setting [3]); below 300 nM in test [2] (setting [6]); 28 nM in test [2] (setting [4]); below 300 nM in test [2] (setting [7]).
On to `O=C(Nc1cc(-c2cn3nc(-c4cccnc4C(F)(F)F)ccc3n2)ccc1Cl)C1CCCCC1` [Example 670, N-(2-chloro-5-(6-(2-(trifluoromethyl)pyridin-3-yl)imidazo[1,2-b]pyridazin-2-yl)phenyl)cyclohexanecarboxamide], for which the results for the IC50 in test [1] (setting [3]) and in test [2] (setting [4]) were 620 nM and 61 nM, respectively.
Turning to `O=C(Nc1cc(-c2cn3nc(-c4cccnc4C(F)(F)F)ccc3n2)ccc1Cl)C1CCCC1` [Example 671, N-(2-chloro-5-(6-(2-(trifluoromethyl)pyridin-3-yl)imidazo[1,2-b]pyridazin-2-yl)phenyl)cyclopentanecarboxamide], the IC50 in test [1] (setting [3]) worked out at 315 nM; in test [2] (setting [4]) it was 24 nM.
As to `CC(C)(C)CC(=O)Nc1cc(-c2cn3nc(-c4cccnc4C(F)(F)F)ccc3n2)ccc1Cl` [Example 672, N-(2-chloro-5-(6-(2-(trifluoromethyl)pyridin-3-yl)imidazo[1,2-b]pyridazin-2-yl)phenyl)-3,3-dimethylbutanamide], the IC50 in test [1] (setting [3]) is 565 nM; in test [2] (setting [4]), 86 nM.
In the same order, the values of `CCOC(=O)Nc1cc(-c2cn3nc(-c4cccnc4C(F)(F)F)ccc3n2)ccc1Cl` [Example 673, ethyl 2-chloro-5-(6-(2-(trifluoromethyl)pyridin-3-yl)imidazo[1,2-b]pyridazin-2-yl)phenylcarbamate] are 678 nM and 169 nM.
In the same order, the values of `CC1(C(=O)Nc2cc(-c3cn4nc(-c5cccnc5C(F)(F)F)ccc4n3)ccc2F)CC1` [Example 674, N-(2-fluoro-5-(6-(2-(trifluoromethyl)pyridin-3-yl)imidazo[1,2-b]pyridazin-2-yl)phenyl)-1-methylcyclopropanecarboxamide] are 140 nM and 59 nM.
The corresponding values for `O=C(CC(F)(F)F)Nc1cc(-c2cn3nc(-c4cccnc4C(F)(F)F)ccc3n2)ccc1Cl` [Example 675, N-(2-chloro-5-(6-(2-(trifluoromethyl)pyridin-3-yl)imidazo[1,2-b]pyridazin-2-yl)phenyl)-3,3,3-trifluoropropanamide] are 777 nM and 99 nM.
As for `O=C(Nc1cc(-c2cn3nc(-c4cccnc4C(F)(F)F)ccc3n2)ccc1Cl)C1CC1` [Example 676, N-(2-chloro-5-(6-(2-(trifluoromethyl)pyridin-3-yl)imidazo[1,2-b]pyridazin-2-yl)phenyl)cyclopropanecarboxamide], the IC50 was 721 nM in test [1] (setting [3]) and 111 nM in test [2] (setting [4]).
In the same order, the values of `O=C(Nc1cc(-c2cn3nc(-c4cccnc4C(F)(F)F)ccc3n2)ccc1F)C1CCCCC1` [Example 677, N-(2-fluoro-5-(6-(2-(trifluoromethyl)pyridin-3-yl)imidazo[1,2-b]pyridazin-2-yl)phenyl)cyclohexanecarboxamide] are 637 nM and 146 nM.
The corresponding values for `O=C(Nc1cc(-c2cn3nc(-c4cccnc4C(F)(F)F)ccc3n2)ccc1F)C1CCCC1` [Example 678, N-(2-fluoro-5-(6-(2-(trifluoromethyl)pyridin-3-yl)imidazo[1,2-b]pyridazin-2-yl)phenyl)cyclopentanecarboxamide] are 342 nM and 139 nM.
In the same order, the values of `CC(C)(C)CC(=O)Nc1cc(-c2cn3nc(-c4cccnc4C(F)(F)F)ccc3n2)ccc1F` [Example 679, N-(2-fluoro-5-(6-(2-(trifluoromethyl)pyridin-3-yl)imidazo[1,2-b]pyridazin-2-yl)phenyl)-3,3-dimethylbutanamide] are 658 nM and 254 nM.
Turning to `O=C(CC(F)(F)F)Nc1cc(-c2cn3nc(-c4cccnc4C(F)(F)F)ccc3n2)ccc1F` [Example 680, 3,3,3-trifluoro-N-(2-fluoro-5-(6-(2-(trifluoromethyl)pyridin-3-yl)imidazo[1,2-b]pyridazin-2-yl)phenyl)propanamide], the IC50 in test [1] (setting [3]) was 3610 nM; in test [2] (setting [4]) it was 518 nM.
On to `O=C(Nc1cc(-c2cn3nc(-c4cccnc4C(F)(F)F)ccc3n2)ccc1F)C1CC1` [Example 681, N-(2-fluoro-5-(6-(2-(trifluoromethyl)pyridin-3-yl)imidazo[1,2-b]pyridazin-2-yl)phenyl)cyclopropanecarboxamide], for which the IC50 came to 6560 nM in test [1] (setting [3]) and 976 nM in test [2] (setting [4]).
The corresponding values for `CCOC(=O)Nc1cc(-c2cn3nc(-c4cccnc4C(F)(F)F)ccc3n2)ccc1F` [Example 682, ethyl 2-fluoro-5-(6-(2-(trifluoromethyl)pyridin-3-yl)imidazo[1,2-b]pyridazin-2-yl)phenylcarbamate] are 1740 nM and 571 nM.

Values taken from US8871767B2, “2-arylimidazo[1,2-B]pyridazine, 2-phenylimidazo[1,2-A]pyridine, and 2-phenylimidazo[1,2-A]pyrazine derivatives” (Hengrui (USA) Ltd., priority 2010, dated 2014).
